Experiments:
Type in all cases: functional, cell-based
[1] = test system: HT-29; assay: Cytotoxicity against human HT-29 cells
[2] = test system: P388; assay: Cytotoxicity against mouse P388 cells
[3] = test system: A549; assay: Cytotoxicity against human A549 cells
[4] = test system: SK-MEL-28; assay: Cytotoxicity against human SK-MEL-28 cells

Measured: IC50

C[C@H]1C(=O)CC(=O)[C@@H]2[C@]1(C)CC[C@H]1[C@@]2(C)CC[C@@]2(C)[C@@H]3CC(C)(C)CC[C@]3(CO)CC[C@]12C
> 10 µg/mL: all assays above

CC(=O)OC[C@]12CCC(C)(C)C[C@H]1[C@]1(C)CC[C@@]3(C)[C@@H]4C(=O)C=C(OC(C)=O)[C@H](C)[C@@]4(C)CC[C@@H]3[C@@]1(C)CC2
> 10 µg/mL: all assays above
